# From US10059715B2, “Acid addition salt of ibrutinib” (ratiopharm GmbH, priority 2014, dated 2018)
# Counter-ions that a name gives are not always drawn.
# Columns and labels:
# physchem = settings: 37 °C, thermodynamic from solid
# [1] = Comparison of solubilities at pH values relevant for the gastrointestinal tract
# [2] = at about pH 8; cited from earlier work
# [3] = 20 mMol NaAc solution, pH 4.5, aqueous buffer
smiles,measurement,setting,value
"C=CC(=O)N1CCC[C@@H](n2nc(-c3ccc(Oc4ccccc4)cc3)c3c(N)ncnc32)C1 [HCl, ibrutinib hydrochloride]",solubility at 1 h,physchem; [3],0.02 mg/mL
same,solubility,"[1]; pH 1.2 (0.1M HCl), 15 min, listed as crystalline ibrutinib hydrochloride, hydrochloride",7.37 mg/mL
same,solubility,"[1]; pH 1.2 (0.1M HCl), 1 h, hydrochloride",7.72 mg/mL
same,solubility,"[1]; pH 1.2 (0.1M HCl), 24 h, hydrochloride",7.38 mg/mL
same,solubility,"[1]; pH 4.5 (20 mMol NaAc), 15 min",0.01 mg/mL
same,solubility,"[1]; pH 4.5 (20 mMol NaAc), 24 h, 37° C., hydrochloride",0.46 mg/mL
same,solubility,"[1]; pH 6.8 (50 mMol KH2PO4), 15 min",0.01 mg/mL
same,solubility,"[1]; pH 6.8 (50 mMol KH2PO4), 1 h, 37° C., hydrochloride",0.05 mg/mL
same,solubility,"[1]; pH 6.8 (50 mMol KH2PO4), 24 h, 37° C., hydrochloride",0.41 mg/mL
"C=CC(=O)N1CCC[C@@H](n2nc(-c3ccc(Oc4ccccc4)cc3)c3c(N)ncnc32)C1 [base, 1-[(3R)-3[4-Amino-3-(4-phenoxyphenyl)-1H-pyrazolo[3,4-d]pyrimidin-1-yl]piperidin-1-yl]prop-2-en-1one]",solubility at 15 min,physchem; [3],0.01 mg/mL
same,solubility at 15 min,"physchem; 50 mMol KH2PO4 solution, pH 6.8, aqueous buffer",0.01 mg/mL
same,solubility,"[1]; pH 1.2 (0.1M HCl), 15 min, listed as ibrutinib base (form A)",2.07 mg/mL
same,solubility,"[1]; pH 1.2 (0.1M HCl), 1 h",2.64 mg/mL
same,solubility,"[1]; pH 1.2 (0.1M HCl), 24 h",2.64 mg/mL
same,solubility,"[1]; pH 4.5 (20 mMol NaAc), 1 h, 37° C.",0.01 mg/mL
same,solubility,"[1]; pH 4.5 (20 mMol NaAc), 24 h, 37° C.",0.01 mg/mL
same,solubility (in words),"[1]; pH 4.5, time not stated",substantially insoluble
same,solubility,"[1]; pH 6.8 (50 mMol KH2PO4), 1 h, 37° C.",0.01 mg/mL
same,solubility,"[1]; pH 6.8 (50 mMol KH2PO4), 24 h, 37° C.",0.01 mg/mL
same,solubility (in words),"[1]; pH 6.8, time not stated",substantially insoluble
same,observed aqueous solubility,[2],about 0.013 mg/ml
